The values that follow come from patent publication US20260317356A1, “SMALL MOLECULE MODULATORS OF OGG1” (AZKARRA THERAPEUTICS, INC., priority 2023, published 2026).

A value given as a limit tells only on which side of the number the result lay.

This test concerns the target hOGG1 (Homo sapiens, UniProt O15527). The experiment in a line: Biochemical fluorescence assay to measure enzymatic activity of hOGG1 (OGG1/APEX IC50). The following applies: 1 nM OGG1+2 nM APEX+6 nM dsDNA (8-oxo-dG substrate); pH 7.5; RT 40 min; read-out: OGG1/APEX IC50. The arrangement: Protein His-hOGG1 (12-323) was prepared; His (N); host or cells: E. coli. A digest of the protocol: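 His-hOGG1 (12-323, E. coli) at 1 nM with 2 nM hAPE1/APEX1, preincubated 20 min RT with compound. Then 6 nM 8-oxo-dG dsDNA substrate added, 40 min at RT in Tris pH 7.5, 100 mM KCl. TAMRA fluorescence (Ex520/Em600) converted to % inhibition vs controls; IC50 from 3-parameter fit of 10-point curve.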

hOGG1, sequence (O15527 12-323): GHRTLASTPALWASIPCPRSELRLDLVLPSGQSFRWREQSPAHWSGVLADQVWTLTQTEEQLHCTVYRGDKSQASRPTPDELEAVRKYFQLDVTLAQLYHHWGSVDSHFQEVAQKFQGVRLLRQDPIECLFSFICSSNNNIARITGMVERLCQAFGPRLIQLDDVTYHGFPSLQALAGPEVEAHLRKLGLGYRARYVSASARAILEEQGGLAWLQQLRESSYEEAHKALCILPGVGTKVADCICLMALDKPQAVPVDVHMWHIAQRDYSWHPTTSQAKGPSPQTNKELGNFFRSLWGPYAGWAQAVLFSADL

As to `CCc1ccc(NC(=O)[C@H]2CC[C@@H](N3Cc4c(C)cccc4C3=O)CC2)cc1OC` [Example 123, (1s,4s)-N-(4-Ethyl-3-methoxyphenyl)-4-(4-methyl-1-oxoisoindolin-2-yl)cyclohexane-1-carboxamide], the IC50 lay in the range of 100 to 1000 nM.

`Cc1cccc2c1CN([C@H]1CC[C@@H](C(=O)Nc3cccc(=O)[nH]3)CC1)C2=O` [Example 248, (1s,4s)-4-(4-Methyl-1-oxoisoindolin-2-yl)-N-(6-oxo-1,6-dihydropyridin-2-yl)cyclohexanecarboxamide]: the IC50 was above 10000 nM.

Take `Cc1cccc2c1CN([C@H]1CC[C@@H](C(=O)Nc3ccc(Cl)c(F)c3)CC1)C2=O` [Example 241, (1s,4s)-N-(4-Chloro-3-fluorophenyl)-4-(4-methyl-1-oxoisoindolin-2-yl)cyclohexanecarboxamide]: the IC50 lay in the range of 100 to 1000 nM.

Consider `COc1cc(NC(=O)[C@H]2CC[C@@H](N3Cc4c(C)cc(OCCN(C)C)cc4C3=O)CC2)ccc1C` [Example 209, (1s,4s)-4-(6-(2-(Dimethylamino)ethoxy)-4-methyl-1-oxoisoindolin-2-yl)-N-(3-methoxy-4-methylphenyl)cyclohexanecarboxamide], for which the IC50 is below 100 nM.

As to `COc1cc(NC(=O)[C@H]2CC[C@@H](N3Cc4c(Br)cc(NCC5CNC5)cc4C3=O)CC2)ccc1C` [Example 177, (1s,4s)-4-(6-(Azetidin-3-ylmethylamino)-4-bromo-1-oxoisoindolin-2-yl)-N-(3-methoxy-4-methylphenyl)cyclohexanecarboxamide], the IC50 was below 100 nM.

As for `COc1ccc(NC(=O)[C@]2(C)CC[C@H](N3Cc4c(C)cccc4NC3=O)CC2)cc1C#N` (single isomer, unassigned) [Example 107, (1s,4s)-N-(3-cyano-4-methoxyphenyl)-1-methyl-4-(5-methyl-2-oxo-1,2-dihydroquinazolin-3(4H)-yl)cyclohexanecarboxamide], the IC50 is below 100 nM.

Consider `COc1cc(NC(=O)[C@H]2CC[C@@H](N3Cc4c(C)cccc4C3=O)CC2)ccc1C#N` [Example 265, (1s,4s)-N-(4-Cyano-3-methoxyphenyl)-4-(4-methyl-1-oxoisoindolin-2-yl)cyclohexanecarboxamide], for which the IC50 is above 10000 nM.

For `COc1cc(NC(=O)[C@H]2CC[C@@H](N3Cc4c(ccc(C#N)c4C)NC3=O)CC2)ccc1C` [Example 56, (1s,4s)-4-(6-Cyano-5-methyl-2-oxo-1,2-dihydroquinazolin-3(4H)-yl)-N-(3-methoxy-4-methylphenyl)cyclohexanecarboxamide], the IC50 lay in the range of 100 to 1000 nM.

In the case of `CNC(=O)c1cc(C)c2c(c1)C(=O)N([C@H]1CC[C@@H](C(=O)Nc3ccc(C)c(OC)c3)CC1)C2` [Example 212, 2-((1s,4s)-4-(3-Methoxy-4-methylphenylcarbamoyl)cyclohexyl)-N,7-dimethyl-3-oxoisoindoline-5-carboxamide], the IC50 was in the range of 100 to 1000 nM.

With `Cc1ccc(NC(=O)[C@H]2CC[C@@H](N3Cc4c(C)cccc4C3=O)CC2)c(O)c1` [Example 230, (1s,4s)-N-(2-Hydroxy-4-methylphenyl)-4-(4-methyl-1-oxoisoindolin-2-yl)cyclohexanecarboxamide], the IC50 was in the range of 1000 to 10000 nM.

Consider `COc1cc(NC(=O)[C@H]2CC[C@@H](N3Cc4c(ccc(OC5CNC5)c4C)NC3=O)CC2)ccc1C` [Example 49, (1s,4s)-4-(6-(Azetidin-3-yloxy)-5-methyl-2-oxo-1,2-dihydroquinazolin-3(4H)-yl)-N-(3-methoxy-4-methylphenyl)cyclohexanecarboxamide], for which the IC50 lay in the range of 100 to 1000 nM.

Take `COc1cc(NC(=O)[C@H]2CC[C@H](N3Cc4c(C)cc(COC5CNC5)cc4NC3=O)CC2)ccc1C` [Example 111, (1r,4r)-4-(7-((azetidin-3-yloxy)methyl)-5-methyl-2-oxo-1,2-dihydroquinazolin-3(4H)-yl)-N-(3-methoxy-4-methylphenyl)cyclohexanecarboxamide]: the IC50 was above 10000 nM.

Take `COc1cc(NC(=O)[C@H]2CC[C@@H](N3Cc4c(C)cccc4C3=O)CC2)ccn1` [Example 234, (1s,4s)-N-(2-Methoxypyridin-4-yl)-4-(4-methyl-1-oxoisoindolin-2-yl)cyclohexanecarboxamide]: the IC50 is above 10000 nM.

For the molecule `COc1cc(NC(=O)[C@H]2CC[C@@H](N3Cc4c(C)cc(CO)cc4C3=O)CC2)ccc1C` [Example 214, (1s,4s)-4-(6-(Hydroxymethyl)-4-methyl-1-oxoisoindolin-2-yl)-N-(3-methoxy-4-methylphenyl)cyclohexanecarboxamide], the IC50 lay in the range of 100 to 1000 nM.

As to `Cc1ccc(NC(=O)[C@H]2CC[C@@H](N3Cc4c(C)cccc4C3=O)CC2)cc1C#N` [Example 218, (1s,4s)-N-(3-Cyano-4-methylphenyl)-4-(4-methyl-1-oxoisoindolin-2-yl)cyclohexanecarboxamide], the IC50 fell in the range of 1000 to 10000 nM.

Regarding `COc1cc(NC(=O)[C@H]2CC[C@@H](N3Cc4c(Br)cc(NCC(C)O)cc4C3=O)CC2)ccc1C` (stereo partly drawn) [Example 179, (1s,4s)-4-(4-Bromo-6-(2-hydroxypropylamino)-1-oxoisoindolin-2-yl)-N-(3-methoxy-4-methylphenyl)cyclohexanecarboxamide], the IC50 was in the range of 100 to 1000 nM.

For `COc1ccc(NC(=O)[C@H]2CC[C@@H](N3Cc4c(C)cccc4C3=O)CC2)c(F)c1` [Example 242, (1s,4s)-N-(2-Fluoro-4-methoxyphenyl)-4-(4-methyl-1-oxoisoindolin-2-yl)cyclohexanecarboxamide], the IC50 lay in the range of 1000 to 10000 nM.

For the molecule `CCOC(=O)c1ccc2c(c1)CN([C@H]1CC[C@@H](C(=O)Nc3ccc(C)c(OC)c3)CC1)C2=O` [Example 171, Ethyl 2-((1s,4s)-4-(3-methoxy-4-methylphenylcarbamoyl)cyclohexyl)-1-oxoisoindoline-5-carboxylate], the IC50 is above 10000 nM.

Consider `COc1cc(NC(=O)[C@@H]2[C@@H]3C[C@H](N4Cc5c(Br)cccc5C4=O)C[C@@H]32)ccc1C` (single isomer, unassigned) [Example 267], for which the IC50 was above 10000 nM.

Consider `COc1cc(NC(=O)[C@H]2CC[C@@H](N3Cc4c(Br)cccc4NC3=O)CC2)ccc1C` [Example 66, (1s,4s)-4-(5-bromo-2-oxo-1,2-dihydroquinazolin-3(4H)-yl)-N-(3-methoxy-4-methylphenyl)cyclohexanecarboxamide], for which the IC50 is 100 to 1000 nM.

On to `Cc1cc(NCCN(C)C)cc2c1CN([C@H]1CC[C@@H](C(=O)Nc3nc(CCO)cs3)CC1)C2=O` [Example 131, (1s,4s)-4-(6-((2-(Dimethylamino)ethyl)amino)-4-methyl-1-oxoisoindolin-2-yl)-N-(4-(2-hydroxyethyl)thiazol-2-yl)cyclohexane-1-carboxamide], for which the IC50 lay within 1000 to 10000 nM.

Consider `COc1cc(NC(=O)[C@H]2CC[C@@H](N3Cc4c(Br)cc(N)cc4C3=O)CC2)ccc1C` [Example 165, (1s,4s)-4-(6-Amino-4-bromo-1-oxoisoindolin-2-yl)-N-(3-methoxy-4-methylphenyl)cyclohexanecarboxamide], for which the IC50 fell in the range of 100 to 1000 nM.

For the molecule `COc1cc(NC(=O)[C@H]2CC[C@@H](N3Cc4c(Br)cc([N+](=O)[O-])cc4C3=O)CC2)ccc1C` [Example 163, (1s,4s)-4-(4-Bromo-6-nitro-1-oxoisoindolin-2-yl)-N-(3-methoxy-4-methylphenyl)cyclohexanecarboxamide], the IC50 lay in the range of 100 to 1000 nM.

Consider `COc1cc(NC(=O)[C@H]2CC[C@@H](N3Cc4c(Br)cc(NCC5CCCN5)cc4C3=O)CC2)ccc1C` (stereo partly drawn) [Example 173, (1s,4s)-4-(4-Bromo-1-oxo-6-(pyrrolidin-2-ylmethylamino)isoindolin-2-yl)-N-(3-methoxy-4-methylphenyl)cyclohexanecarboxamide], for which the IC50 is below 100 nM.

In the case of `COc1cc(NC(=O)[C@H]2CC[C@H](N3Cc4c(C)cc(C5COC5)cc4NC3=O)CC2)ccc1C` [Example 110, (1r,4r)-N-(3-methoxy-4-methylphenyl)-4-(5-methyl-7-(oxetan-3-yl)-2-oxo-1,2-dihydroquinazolin-3(4H)-yl)cyclohexanecarboxamide], the IC50 lay within 1000 to 10000 nM.

In the case of `COc1cc(NC(=O)[C@H]2CC[C@@H](N3Cc4c(C)ccc(Br)c4NC3=O)CC2)ccc1C` [Example 62, (1s,4s)-4-(8-Bromo-5-methyl-2-oxo-1,2-dihydroquinazolin-3(4H)-yl)-N-(3-methoxy-4-methylphenyl)cyclohexanecarboxamide], the IC50 was below 100 nM.

`Cc1ccc(NC(=O)[C@H]2CC[C@@H](N3Cc4c(C)cccc4C3=O)CC2)cc1CO` [Example 126, (1s,4s)-N-(3-(Hydroxymethyl)-4-methylphenyl)-4-(4-methyl-1-oxoisoindolin-2-yl)cyclohexane-1-carboxamide]: the IC50 fell in the range of 1000 to 10000 nM.

On to `Cc1cccc2c1CN([C@H]1CC[C@@H](C(=O)Nc3ccc4cnn(C)c4c3)CC1)C2=O` [Example 215, (1s,4s)-4-(4-Methyl-1-oxoisoindolin-2-yl)-N-(1-methyl-1H-indazol-6-yl)cyclohexanecarboxamide], for which the IC50 was in the range of 1000 to 10000 nM.

Regarding `COc1cc(NC(=O)[C@H]2CC[C@@H](N3Cc4c(C)cc(OCc5ncc[nH]5)cc4C3=O)CC2)ccc1C` [Example 226, (1s,4s)-4-(6-((1H-Imidazol-2-yl)methoxy)-4-methyl-1-oxoisoindolin-2-yl)-N-(3-methoxy-4-methylphenyl)cyclohexanecarboxamide], the IC50 fell in the range of 100 to 1000 nM.

In the case of `COc1cc(NC(=O)[C@H]2CC[C@@H](N3Cc4c(Cl)cccc4C3=O)CC2)ccc1C` [Example 149, (1s,4s)-4-(4-Chloro-1-oxoisoindolin-2-yl)-N-(3-methoxy-4-methylphenyl)cyclohexanecarboxamide], the IC50 was 100 to 1000 nM.
